ChEMBL document CHEMBL1124506, “Synthesis and antimicrobial properties of substituted beta-aminoxypropionyl penicillins and cephalosporins” (1989)
≈ marks a conversion by molar mass, not a printed value.

Legend:
Format in all cases: functional
[1] = Inhibition of gram negative (resistant) growth.
[2] = Inhibition of gram positive bacteria growth.
[3] = Inhibition of gram negative bacteria growth.
Staphylococcus aureus = assay: Inhibition of gram positive (resistant) bacteria growth.

| Structure (SMILES) | MIC [1] [mg/L] | MIC [2] [mg/L] | MIC [3] [mg/L] | MIC (Staphylococcus aureus) [mg/L] |
| --- | --- | --- | --- | --- |
| CC1(C)SC2C(NC(=O)CCON=C3CCCC3)C(=O)N2[C@H]1C(=O)[O-].[K+] (some centres undefined) | > 200 | 0.06 | 53 | 25 |
| CC(=O)OCC1=C(C(=O)[O-])N2C(=O)C(NC(=O)CCO/N=C(\C)c3ccc(Cl)cc3)C2SC1.[K+] (centres undefined) | > 200 | 0.25 | 151 | 4 |
| CCCC(CCC)=NOCCC(=O)NC1C(=O)N2C(C(=O)O)=C(C)CSC12 (centres undefined) | > 200 | 16.4 (≈ 41.3 µM) | > 200 | 100 (≈ 252 µM) |
| CC1(C)SC2C(NC(=O)CCON=C3CCCCC3)C(=O)N2[C@H]1C(=O)[O-].[K+] (some centres undefined) | > 200 | 0.2 | 107 | 25 |
| CC(=O)OCC1=C(C(=O)O)N2C(=O)C(NC(=O)CCON=C3c4ccccc4-c4ccccc43)C2SC1 (centres undefined) | > 100 | 0.02 (≈ 0.0383 µM) | 44 (≈ 84.4 µM) | 0.25 (≈ 0.479 µM) |
| CC(=O)OCC1=C(C(=O)O)N2C(=O)C(NC(=O)CCON=C(C)C)C2SC1 (centres undefined) | > 200 | 1.7 (≈ 4.26 µM) | 174 (≈ 436 µM) | 6.2 (≈ 15.5 µM) |
| CC(=O)OCC1=C(C(=O)O)N2C(=O)C(NC(=O)Cc3ccccc3)C2SC1 (centres undefined) | > 200 | 1.06 (≈ 2.72 µM) | 29 (≈ 74.3 µM) | 12.6 (≈ 32.3 µM) |
| CC(=O)OCC1=C(C(=O)O)N2C(=O)C(NC(=O)CCON=C3CCCCC3)C2SC1 (centres undefined) | > 200 | 0.5 (≈ 1.14 µM) | 174 (≈ 396 µM) | 1.9 (≈ 4.32 µM) |
| CC(=O)OCC1=C(C(=O)O)N2C(=O)C(NC(=O)CCO/N=C\c3ccccc3)C2SC1 (centres undefined) | > 200 | 0.22 (≈ 0.492 µM) | 71 (≈ 159 µM) | 4 (≈ 8.94 µM) |
| CC1=C(C(=O)O)N2C(=O)C(NC(=O)Cc3ccccc3)C2SC1 (centres undefined) | > 200 | 6.2 (≈ 18.7 µM) | 123 (≈ 370 µM) | 200 (≈ 602 µM) |
| CC1=C(C(=O)O)N2C(=O)C(NC(=O)CCO/N=C(\C)c3ccc(Cl)cc3)C2SC1 (centres undefined) | > 200 | 4.7 (≈ 10.7 µM) | > 200 | 63 (≈ 144 µM) |
| CC1(C)SC2C(NC(=O)CCO/N=C/c3ccccc3)C(=O)N2[C@H]1C(=O)[O-].[K+] (some centres undefined) | > 200 | 0.1 | 136 | 50 |
| CC1=C(C(=O)O)N2C(=O)C(NC(=O)CCON=C3CCCCC3)C2SC1 (centres undefined) | > 200 | 7.3 (≈ 19.1 µM) | 131 (≈ 343 µM) | 79 (≈ 207 µM) |
| CC1=C(C(=O)O)N2C(=O)C(NC(=O)CCO/N=C\c3ccccc3)C2SC1 (centres undefined) | > 200 | 8.2 (≈ 21.1 µM) | > 200 | 79 (≈ 203 µM) |
| CC1=C(C(=O)O)N2C(=O)C(NC(=O)CCON=C3CCCC3)C2SC1 (centres undefined) | > 200 | 9.1 (≈ 24.8 µM) | 131 (≈ 357 µM) | 79 (≈ 215 µM) |
| CCCC(CCC)=NOCCC(=O)NC1C(=O)N2C(C(=O)O)=C(COC(C)=O)CSC12 (centres undefined) | > 200 | 0.73 (≈ 1.6 µM) | 93 (≈ 204 µM) | 10 (≈ 22 µM) |
| CC1(C)SC2C(NC(=O)CCON=C3c4ccccc4-c4ccccc43)C(=O)N2[C@H]1C(=O)[O-].[K+] (some centres undefined) | > 200 | 0.06 | 131 | 8 |
| CC1(C)S[C@@H]2[C@H](NC(=O)[C@H](N)c3ccccc3)C(=O)N2[C@H]1C(=O)O [AMPICILLIN] | > 200 | 0.04 (≈ 0.114 µM) | 1 (≈ 2.86 µM) | 10 (≈ 28.6 µM) |
| CC1=C(C(=O)O)N2C(=O)[C@@H](NC(=O)[C@H](N)c3ccccc3)[C@H]2SC1 [CEPHALEXIN ANHYDROUS] | > 100 | 0.4 (≈ 1.15 µM) | 2 (≈ 5.76 µM) | 20 (≈ 57.6 µM) |
| CC1(C)S[C@@H]2[C@H](NC(=O)Cc3ccccc3)C(=O)N2[C@H]1C(=O)O [PENICILLIN G] | > 200 | 0.05 (≈ 0.15 µM) | 71 (≈ 212 µM) | 79 (≈ 236 µM) |
| [3H]C([3H])([3H])N1C(=O)CN=C(c2ccc(Cl)cc2)c2cc(Cl)ccc21 [[3H]-RO-54864] | > 200 | 0.59 (≈ 1.81 µM) | 71 (≈ 218 µM) | 7.3 (≈ 22.4 µM) |
